From publication PMC9112895, “Selective Inhibition of Plasmodium falciparum ATPase 6 by Artemisinins and Identification of New Classes of Inhibitors after Expression in Yeast” (Antimicrobial Agents and Chemotherapy, 2022) come the findings set out here.

For one assay, the target named is PfATP6 (Plasmodium falciparum, UniProt Q08853). As to the kind of experiment: cell-based. Type of assay: cell-based. Further details: pUGpd containing the yeast-optimized coding region of PfATP6 from Plasmodium falciparum; expressed in transfected cells; host or cells: Saccharomyces cerevisiae K667 and K667Δpdr5::HIS. The note with it: growth inhibition, K667Δpdr5[PfATP6]. How it is done:
The screening assay used here was developed from the protocol used by Pulcini et al. ([13]). A single colony of the yeast strain to be screened was picked and grown in 5 mL of selective medium until stationary phase was reached. The culture was diluted 100-fold in ampicillin-supplemented yeast extract-peptone-dextrose (YPD) medium to an OD at 620 nm (OD620) equivalent to that of lag phase. YPD medium was supplemented with an appropriate concentration of calcium, depending on the transformed strain. […] The optimal calcium concentration was periodically monitored and, if necessary, adjusted using a calcium concentration range of 10 to 30 mM. A final volume of 200 μL of the yeast culture was added to each well of a 96-well plate, with 5 technical replicates included per inhibitor. All inhibitors were dissolved in dimethyl sulfoxide (DMSO) unless otherwise stated. […] The 96-well plates were incubated at 30°C for 42 h. The yeast growth was estimated from the absorbance at 620 nm in a Tecan plate reader. Growth was normalized with the no-drug control to present data as percent growth. The data collected were analyzed using GraphPad Prism v9.0 (GraphPad software, San Diego, CA, U.S.A).

Assay [1] deals with T1, SERCA1a (Oryctolagus cuniculus, UniProt P04191). As to the kind of experiment: Yeast whole-cell growth inhibition assay, K667Δpdr5[SERCA1a]. Type of assay: cell-based, rabbit. On the set-up: containing the SERCA1a coding region from rabbit skeletal fast-twitch muscle; expressed in transfected cells; host or cells: Saccharomyces cerevisiae K667 and K667Δpdr5::HIS. How it is done: (§1) Yeast transformations were performed using the method described by Gietz and Schiestl ([48]), and transformants were selected by an uracil auxotrophic marker. Transformations were confirmed by colony PCR. Both K667 and K667Δpdr5::HIS were transformed with the following plasmids: pUGpd plasmid as a vector-only control (derived from pRS316 [49]); br434 plasmid (derived from pRS316 [50]) containing the SERCA1a coding region from rabbit skeletal fast-twitch muscle (pbr434-SERCA1a); and pUGpd containing the yeast-optimized coding region of PfATP6 from Plasmodium falciparum (pUGpd-PfATP6). Site-directed mutagenesis was performed on the SERCA1a coding region to produce the mutation E255L in the protein. Mutations were also introduced into the PfATP6 coding region to produce mutations L263E, A623E, and S769N and the double mutation A623E/S769N ([13]).
T1 sequence (P04191 other isoform, or with tags, fused parts or gaps): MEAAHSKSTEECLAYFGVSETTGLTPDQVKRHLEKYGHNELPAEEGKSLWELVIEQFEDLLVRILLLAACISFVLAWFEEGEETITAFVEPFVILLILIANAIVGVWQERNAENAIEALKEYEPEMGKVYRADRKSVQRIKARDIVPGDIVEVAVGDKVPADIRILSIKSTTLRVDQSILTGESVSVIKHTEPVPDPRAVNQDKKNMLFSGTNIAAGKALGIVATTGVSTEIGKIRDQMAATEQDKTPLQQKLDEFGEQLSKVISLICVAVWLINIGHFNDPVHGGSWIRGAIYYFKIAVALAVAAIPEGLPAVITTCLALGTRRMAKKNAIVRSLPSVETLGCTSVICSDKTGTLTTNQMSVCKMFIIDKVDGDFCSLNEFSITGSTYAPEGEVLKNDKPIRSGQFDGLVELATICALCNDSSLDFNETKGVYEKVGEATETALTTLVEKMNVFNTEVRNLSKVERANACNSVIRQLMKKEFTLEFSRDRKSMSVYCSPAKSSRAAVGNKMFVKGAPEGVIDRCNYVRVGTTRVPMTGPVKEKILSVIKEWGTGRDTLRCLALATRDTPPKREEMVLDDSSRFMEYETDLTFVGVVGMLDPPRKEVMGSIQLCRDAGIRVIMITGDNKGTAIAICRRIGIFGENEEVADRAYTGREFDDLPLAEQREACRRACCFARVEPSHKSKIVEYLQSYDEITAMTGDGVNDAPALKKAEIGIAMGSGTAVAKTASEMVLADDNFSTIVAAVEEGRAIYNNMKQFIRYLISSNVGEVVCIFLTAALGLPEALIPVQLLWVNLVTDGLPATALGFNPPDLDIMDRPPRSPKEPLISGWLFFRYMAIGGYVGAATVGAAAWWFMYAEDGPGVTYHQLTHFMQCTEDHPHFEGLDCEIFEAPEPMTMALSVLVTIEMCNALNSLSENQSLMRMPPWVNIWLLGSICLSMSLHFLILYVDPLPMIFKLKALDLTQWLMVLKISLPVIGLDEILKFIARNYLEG
(§2) The screening assay used here was developed from the protocol used by Pulcini et al. ([13]). A single colony of the yeast strain to be screened was picked and grown in 5 mL of selective medium until stationary phase was reached. The culture was diluted 100-fold in ampicillin-supplemented yeast extract-peptone-dextrose (YPD) medium to an OD at 620 nm (OD620) equivalent to that of lag phase. YPD medium was supplemented with an appropriate concentration of calcium, depending on the transformed strain. The optimal calcium concentration for the PfATP6-expressing strain was 22 mM, and that for the SERCA1a-expressing strain was […]. The optimal calcium concentration was periodically monitored and, if necessary, adjusted using a calcium concentration range of 10 to 30 mM. A final volume of 200 μL of the yeast culture was added to each well of a 96-well plate, with 5 technical replicates included per inhibitor. All inhibitors were dissolved in dimethyl sulfoxide (DMSO) unless otherwise stated. […] The yeast growth was estimated from the absorbance at 620 nm in a Tecan plate reader. […] The data collected were analyzed using GraphPad Prism v9.0 (GraphPad software, San Diego, CA, U.S.A).

Another assay has as its system K667Δpdr5::pUGpd. As to the kind of experiment: Yeast whole-cell growth inhibition, vector-only control K667Δpdr5::pUGpd. In kind it is cell-based, Saccharomyces cerevisiae. The following applies: compound screen. How it is done: The screening assay used here was developed from the protocol used by Pulcini et al. ([13]). A single colony of the yeast strain to be screened was picked and grown in 5 mL of selective medium until stationary phase was reached. The culture was diluted 100-fold in ampicillin-supplemented yeast extract-peptone-dextrose (YPD) medium to an OD at 620 nm (OD620) equivalent to that of lag phase. YPD medium was supplemented with an appropriate concentration of calcium, depending on the transformed strain. The optimal calcium concentration for the PfATP6-expressing strain was 22 mM, and that for the SERCA1a-expressing strain was […]. The optimal calcium concentration was periodically monitored and, if necessary, adjusted using a calcium concentration range of 10 to 30 mM. A final volume of 200 μL of the yeast culture was added to each well of a 96-well plate, with 5 technical replicates included per inhibitor. All inhibitors were dissolved in dimethyl sulfoxide (DMSO) unless otherwise stated. Stock solutions of each inhibitor were diluted 100-fold in each well to give the desired final concentration. […] The 96-well plates were incubated at 30°C for 42 h. The yeast growth was estimated from the absorbance at 620 nm in a Tecan plate reader. […] The data collected were analyzed using GraphPad Prism v9.0 (GraphPad software, San Diego, CA, U.S.A).

Assay [2] concerns the target T1, SERCA1a. As to the kind of experiment: Yeast whole-cell growth inhibition assay, K667::SERCA1a. Type of assay: cell-based, rabbit. Further details: containing the SERCA1a coding region from rabbit skeletal fast-twitch muscle; expressed in transfected cells; host or cells: Saccharomyces cerevisiae K667 and K667Δpdr5::HIS. The note with it: measured at 40 h. How it is done:
as §1
The screening assay used here was developed from the protocol used by Pulcini et al. ([13]). […] The optimal calcium concentration was periodically monitored and, if necessary, adjusted using a calcium concentration range of 10 to 30 mM. […] The yeast growth was estimated from the absorbance at 620 nm in a Tecan plate reader. […] The data collected were analyzed using GraphPad Prism v9.0 (GraphPad software, San Diego, CA, U.S.A).

In a further assay the target is T2, E255LSERCA1a (Oryctolagus cuniculus, UniProt P04191, E255L).
T2 construct: expressed in transfected cells; host or cells: Saccharomyces cerevisiae K667Δpdr5
T2 sequence (P04191 other isoform, or with tags, fused parts or gaps E255L): as the sequence (P04191 other isoform, or with tags, fused parts or gaps) above, with E255L counted along it
As to the kind of experiment: Yeast whole-cell growth inhibition assay, K667Δpdr5[SERCA1a]255L. Type of assay: cell-based, rabbit. How it is done: The E255L mutation was introduced into SERCA1a using the following primers: forward, 5′-[…]-3′; reverse, 5′-[…]-3′. Site-directed mutagenesis was performed using the Agilent Quikchange Lightning site-directed mutagenesis kit, following the manufacturer’s instructions. Mutants were screened by Sanger sequencing (Eurofins, UK).
as §2, with “mM.” for “mM. A final volume of 200 μL of the yeast culture was added to each well of a 96-well plate, with 5 technical replicates included per inhibitor. All inhibitors were dissolved in dimethyl sulfoxide (DMSO) unless otherwise stated.”

Chain of PfATP6 (Q08853 whole entry): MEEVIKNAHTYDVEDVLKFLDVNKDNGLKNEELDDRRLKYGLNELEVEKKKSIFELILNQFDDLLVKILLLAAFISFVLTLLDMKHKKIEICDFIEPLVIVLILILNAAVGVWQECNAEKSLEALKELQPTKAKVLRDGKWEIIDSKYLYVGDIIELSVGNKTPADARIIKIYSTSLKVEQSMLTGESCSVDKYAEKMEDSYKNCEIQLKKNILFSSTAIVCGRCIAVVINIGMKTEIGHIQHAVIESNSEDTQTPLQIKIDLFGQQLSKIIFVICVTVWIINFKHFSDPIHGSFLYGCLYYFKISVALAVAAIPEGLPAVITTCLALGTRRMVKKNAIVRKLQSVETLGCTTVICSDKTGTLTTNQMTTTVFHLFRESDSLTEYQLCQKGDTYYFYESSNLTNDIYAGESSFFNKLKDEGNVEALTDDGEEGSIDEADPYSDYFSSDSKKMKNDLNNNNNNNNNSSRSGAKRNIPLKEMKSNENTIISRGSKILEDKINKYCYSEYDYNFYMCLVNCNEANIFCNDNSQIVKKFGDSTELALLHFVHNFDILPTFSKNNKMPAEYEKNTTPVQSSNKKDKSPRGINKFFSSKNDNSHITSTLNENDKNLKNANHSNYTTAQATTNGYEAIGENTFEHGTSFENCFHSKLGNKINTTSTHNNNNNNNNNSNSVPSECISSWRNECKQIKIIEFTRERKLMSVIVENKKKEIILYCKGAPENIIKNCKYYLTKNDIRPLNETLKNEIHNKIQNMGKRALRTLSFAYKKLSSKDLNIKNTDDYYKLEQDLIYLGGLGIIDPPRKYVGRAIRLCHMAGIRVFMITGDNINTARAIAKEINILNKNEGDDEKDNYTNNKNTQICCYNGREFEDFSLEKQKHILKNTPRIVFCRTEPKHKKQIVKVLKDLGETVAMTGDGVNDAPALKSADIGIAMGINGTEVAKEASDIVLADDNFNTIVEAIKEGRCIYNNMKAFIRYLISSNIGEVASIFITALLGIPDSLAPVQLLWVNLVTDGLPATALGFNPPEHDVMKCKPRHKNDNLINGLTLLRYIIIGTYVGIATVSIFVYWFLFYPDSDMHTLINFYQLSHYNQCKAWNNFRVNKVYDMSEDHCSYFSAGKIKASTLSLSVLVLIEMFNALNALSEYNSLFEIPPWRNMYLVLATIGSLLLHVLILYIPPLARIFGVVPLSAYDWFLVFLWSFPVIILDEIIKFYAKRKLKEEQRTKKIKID

For `O=C(Nc1cccc(C(F)(F)F)c1)c1cc(Cl)ccc1O` [MMV665807], the “inhibition of PfATP6 in compound screen” value on PfATP6 is on record as “highest reproducible potency”. Moreover, the “inhibition of control strain K667Δpdr5::SERCA1a” value against SERCA1a [1] (compound screen) was “almost no inhibition”. Besides, the “inhibition of control strain K667Δpdr5::pUGpd” value in the assay with K667Δpdr5::pUGpd is listed as “almost no inhibition”.
`C/C=C(/C)C(=O)O[C@H]1C(C)=C2[C@H]([C@@H]1OC(=O)CCCCCCC)[C@@](C)(OC(C)=O)C[C@H](OC(=O)CCC)[C@@]1(O)[C@H]2OC(=O)[C@@]1(C)O` [thapsigargin]: the “fold lower IC50 in K667DPDR5::SERCA1a than in K667::SERCA1a” value on SERCA1a [1] is more than 2 fold. Further, the IC50 – broadly, the concentration that gives 50% inhibition – at SERCA1a [1] (K667DPDR5::SERCA1a (wild-type E255), measured at 40 h) stood at 142 ± 43.9 nM; on SERCA1a [2], 335 ± 67.5 nM; at E255LSERCA1a, 794 ± 247 nM. Moreover, the “fold less sensitive, E255LSERCA1a versus wild-type” value on E255LSERCA1a was 5 fold.
